Laboratory results as given in the supplement of paper PMC6045584.
± gives the standard deviation of the averaged measurements.

compound: CN(Cc1cnc2nc(N)nc(N)c2n1)c1ccc(C(=O)N[C@@H](CCC(=O)O)C(=O)O)cc1 [METHOTREXATE]; assay: surviving fraction relative to DMSO-only wells; higher = less growth inhibition; details: 50 nM; exposure time: 5 days
Procedure, shortened: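 Viability was determined by CellTiter-Glo luminescence, expressed as surviving fraction normalised to the median of DMSO-only wells. The cells were log-phase tumour cell lines seeded at 250–500 per well in 384-well plates and, after 24 hours, exposed continuously for five days to inhibitors at 0.5, 1, 5, 10, 50, 100, 500 and 1000 nM. Three screens per line were run, keeping only lines with replicate Pearson r >0.7 and median Z' >0.3.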

Point of comparison: HCC70 BREAST, surviving fraction 0.842 ± 0.043. Against it:
- 22RV1 PROSTATE — lower, 0.452 ± 0.016
- 93VU HEADNECK — within error, 0.854 ± 0.081
- 143B BONE — lower, 0.379 ± 0.033
- A549 LUNG — lower, 0.237 ± 0.0061
- ASKA SYNOVIAL — higher, 1.23 ± 0.094
- BT20 BREAST — higher, 0.992 ± 0.1
- BT549 BREAST — lower, 0.107 ± 0.012
- CADOES1 SOFT TISSUE — lower, 0.288 ± 0.013
- CAL51 BREAST — lower, 0.243 ± 0.0049
- CAL120 BREAST — lower, 0.328 ± 0.0043
- CASKI CERVIX — lower, 0.533 ± 0.019
- CHLA90 AUTONOMIC GANGLIA — higher, 1.08 ± 0.11
- CME SYNOVIAL — lower, 0.612 ± 0.019
- COLO320DM LARGE INTESTINE — lower, 0.315 ± 0.011
- DU4475 BREAST — higher, 1.02 ± 0.049
- H23 LUNG — lower, 0.254 ± 0.015
- HCC38 BREAST — within error, 1.05 ± 0.28
- HCC78 LUNG — lower, 0.503 ± 0.056
- HCC202 BREAST — higher, 1.14 ± 0.16
- HCC1806 BREAST — lower, 0.263 ± 0.01
- HCC1954 BREAST — higher, 1.17 ± 0.11
- HCT15 LARGE INTESTINE — lower, 0.138 ± 0.014
- HELA CERVIX — lower, 0.712 ± 0.085
- HMLE3 BREAST — lower, 0.575 ± 0.051
- HMT3552 BREAST — lower, 0.604 ± 0.06
- HOS BONE — lower, 0.232 ± 0.013
- HOSMNG BONE — lower, 0.212 ± 0.016
- HS57T BREAST — lower, 0.252 ± 0.025
- HS578T BREAST — lower, 0.518 ± 0.069
- HSSYII SYNOVIAL — within error, 0.822 ± 0.035
- HT1080 SOFT TISSUE — lower, 0.253 ± 0.023

same assay, conditions: 100 nM; exposure time: 5 days

Point of comparison: 93VU HEADNECK, surviving fraction 1.02 ± 0.051. Against it:
- 22RV1 PROSTATE — lower, 0.325 ± 0.013
- 143B BONE — lower, 0.174 ± 0.014
- A549 LUNG — lower, 0.219 ± 0.0071
- ASKA SYNOVIAL — higher, 1.18 ± 0.087
- BT20 BREAST — within error, 0.995 ± 0.089
- BT549 BREAST — lower, 0.044 ± 0.0053
- CADOES1 SOFT TISSUE — lower, 0.229 ± 0.0093
- CAL51 BREAST — lower, 0.142 ± 0.015
- CAL120 BREAST — lower, 0.336 ± 0.0094
- CASKI CERVIX — lower, 0.2303 ± 0.0015
- CHLA90 AUTONOMIC GANGLIA — within error, 1.13 ± 0.12
- CME SYNOVIAL — lower, 0.612 ± 0.034
- COLO320DM LARGE INTESTINE — lower, 0.315 ± 0.0081
- DU4475 BREAST — within error, 1.09 ± 0.092
- H23 LUNG — lower, 0.236 ± 0.022
- HCC38 BREAST — lower, 0.803 ± 0.038
- HCC70 BREAST — lower, 0.789 ± 0.023
- HCC78 LUNG — lower, 0.448 ± 0.058
- HCC202 BREAST — within error, 1.16 ± 0.37
- HCC1806 BREAST — lower, 0.227 ± 0.017
- HCC1954 BREAST — within error, 0.997 ± 0.16
- HCT15 LARGE INTESTINE — lower, 0.102 ± 0.017
- HELA CERVIX — lower, 0.332 ± 0.018
- HMLE3 BREAST — lower, 0.639 ± 0.062
- HMT3552 BREAST — lower, 0.282 ± 0.02
- HOS BONE — lower, 0.226 ± 0.0083
- HOSMNG BONE — lower, 0.316 ± 0.011
- HS57T BREAST — lower, 0.226 ± 0.013
- HS578T BREAST — lower, 0.438 ± 0.012
- HSSYII SYNOVIAL — lower, 0.834 ± 0.081
- HT1080 SOFT TISSUE — lower, 0.257 ± 0.0082

same assay, conditions: 500 nM; exposure time: 5 days

Point of comparison: CADOES1 SOFT TISSUE, surviving fraction 0.226 ± 0.021. Against it:
- 22RV1 PROSTATE — within error, 0.285 ± 0.097
- 93VU HEADNECK — higher, 0.702 ± 0.049
- 143B BONE — lower, 0.085 ± 0.0071
- A549 LUNG — within error, 0.213 ± 0.0055
- ASKA SYNOVIAL — higher, 1.19 ± 0.086
- BT20 BREAST — higher, 0.998 ± 0.021
- BT549 BREAST — lower, 0.0323 ± 0.0055
- CAL51 BREAST — lower, 0.0995 ± 0.0051
- CAL120 BREAST — higher, 0.333 ± 0.0045
- CASKI CERVIX — within error, 0.192 ± 0.018
- CHLA90 AUTONOMIC GANGLIA — higher, 1.16 ± 0.11
- CME SYNOVIAL — higher, 0.561 ± 0.048
- COLO320DM LARGE INTESTINE — higher, 0.307 ± 0.0097
- DU4475 BREAST — higher, 1.03 ± 0.13
- H23 LUNG — within error, 0.236 ± 0.016
- HCC38 BREAST — higher, 0.385 ± 0.086
- HCC70 BREAST — higher, 0.763 ± 0.025
- HCC78 LUNG — higher, 0.421 ± 0.032
- HCC202 BREAST — higher, 0.945 ± 0.21
- HCC1806 BREAST — within error, 0.244 ± 0.0074
- HCC1954 BREAST — higher, 1.09 ± 0.13
- HCT15 LARGE INTESTINE — lower, 0.137 ± 0.019
- HELA CERVIX — higher, 0.282 ± 0.012
- HMLE3 BREAST — higher, 0.522 ± 0.026
- HMT3552 BREAST — lower, 0.182 ± 0.0061
- HOS BONE — within error, 0.218 ± 0.01
- HOSMNG BONE — higher, 0.341 ± 0.015
- HS57T BREAST — within error, 0.205 ± 0.018
- HS578T BREAST — higher, 0.375 ± 0.011
- HSSYII SYNOVIAL — higher, 0.755 ± 0.045
- HT1080 SOFT TISSUE — higher, 0.259 ± 0.0081

same assay, conditions: 1000 nM; exposure time: 5 days

Point of comparison: HOS BONE, surviving fraction 0.214 ± 0.018. Against it:
- 22RV1 PROSTATE — within error, 0.279 ± 0.099
- 93VU HEADNECK — higher, 0.671 ± 0.018
- 143B BONE — lower, 0.0875 ± 0.016
- A549 LUNG — within error, 0.218 ± 0.0055
- ASKA SYNOVIAL — higher, 1.12 ± 0.09
- BT20 BREAST — higher, 0.989 ± 0.1
- BT549 BREAST — lower, 0.039 ± 0.011
- CADOES1 SOFT TISSUE — within error, 0.242 ± 0.011
- CAL51 BREAST — lower, 0.09133 ± 0.00076
- CAL120 BREAST — higher, 0.335 ± 0.012
- CASKI CERVIX — within error, 0.208 ± 0.027
- CHLA90 AUTONOMIC GANGLIA — higher, 1.19 ± 0.033
- CME SYNOVIAL — higher, 0.648 ± 0.046
- COLO320DM LARGE INTESTINE — higher, 0.295 ± 0.027
- DU4475 BREAST — higher, 1.01 ± 0.032
- H23 LUNG — within error, 0.222 ± 0.014
- HCC38 BREAST — higher, 0.359 ± 0.032
- HCC70 BREAST — higher, 0.787 ± 0.041
- HCC78 LUNG — higher, 0.41 ± 0.039
- HCC202 BREAST — higher, 1.15 ± 0.13
- HCC1806 BREAST — higher, 0.254 ± 0.016
- HCC1954 BREAST — higher, 0.849 ± 0.18
- HCT15 LARGE INTESTINE — lower, 0.134 ± 0.015
- HELA CERVIX — higher, 0.288 ± 0.016
- HMLE3 BREAST — higher, 0.513 ± 0.037
- HMT3552 BREAST — lower, 0.171 ± 0.008
- HOSMNG BONE — higher, 0.353 ± 0.0087
- HS57T BREAST — the same, 0.214 ± 0.0081
- HS578T BREAST — higher, 0.418 ± 0.011
- HSSYII SYNOVIAL — higher, 0.78 ± 0.043
- HT1080 SOFT TISSUE — higher, 0.265 ± 0.03
